The values below are quoted from earlier work in US10815533B2, “Biomarker for diagnosing anticancer drug resistance of gastric cancer and use thereof” (SAMSUNG LIFE PUBLIC WELFARE FOUNDATION, priority 2017, dated 2020).

The test system of data set [1] is gastric cancer cell line in which FGFR2 was amplified. The settings on record: preclinical result.
The test system of the next data set is FGFR2b+gastric cancer. The note with it: phase I clinical trial, 3 out of 9.

As to `CCN1CCN(c2ccc(Nc3cc(N(C)C(=O)Nc4c(Cl)c(OC)cc(OC)c4Cl)ncn3)cc2)CC1` [BGJ398], the antitumor efficacy entry in data set [1] is listed as “strong antitumor efficacy”.

B1: FPA144: selective monoclonal antibody against the FGFR2b subtype (antibody, chains of the INN, looked up, V domains shown)
VH: QVQLVQSGAEVKKPGSSVKVSCKASGYIFTTYNVHWVRQAPGQGLEWIGSIYPDNGDTSYNQNFKGRATITADKSTSTAYMELSSLRSEDTAVYYCARGDFAYWGQGTLVTVSS
VL: DIQMTQSPSSLSASVGDRVTITCKASQGVSNDVAWYQQKPGKAPKLLIYSASYRYTGVPSRFSGSGSGTDFTFTISSLQPEDIATYYCQQHSTTPYTFGQGTKLEIK
B1: in the data set on FGFR2b+gastric cancer, the response rate is 33%.
